The record followed here is ChEMBL document CHEMBL2311533, “Pentacyclic hemiacetal sterol with antifouling and cytotoxic activities from the soft coral Nephthea sp” (Bioorg Med Chem Lett, 2013).

Values after ≈ are worked out from the molar mass of the structure shown.

One series has as its system HeLa. Briefly: Cytotoxicity against human HeLa cells incubated for 48 hrs by MTT assay. Type of series: functional, cell-based. A general note: Tetrazolium dyes change colour on reduction, which living cells bring about.
Series [1] is described as follows: Toxicity against Bugula neritina larvae.
A short description of series [2]: Antifouling activity against Bugula neritina larvae. Type of series: functional.
The nature of series [3]: Selectivity index, ratio of cytotoxic LC50 to antifouling EC50 in Bugula neritina larvae.

Regarding `CC(C)CC[C@H]1OC(O)[C@]23CC[C@H]4[C@@H](CCC5=CC(=O)C=C[C@@]54C)[C@@H]2CC[C@@H]3[C@@H]1C` (mixture of isomers) [NEPHTHOACETAL], inhibition in the series on HeLa was half-maximal at 12.3 µg/mL (IC50). The LC50 (commonly the concentration that kills 50% of the test population) in series [1] was greater than 25 µg/mL. For the same compound, the EC50 (usually the concentration at which the effect is half-maximal) in series [2] amounted to 2.5 µg/mL. The “Selectivity Index” value in series [3] was greater than 10.
Regarding `CC(=O)O[C@@H]1O[C@H](CCC(C)C)[C@@H](C)[C@H]2CC[C@H]3[C@@H]4CCC5=CC(=O)C=C[C@]5(C)[C@H]4CC[C@]123`, the midpoint of inhibition in the series on HeLa, the IC50, lay at 10.1 µg/mL (≈ 22.2 µM). The compound also returned an LC50 in series [1] greater than 25 µg/mL. In series [2], this compound came in with an EC50 greater than 25 µg/mL.
Consider `CC(=O)O[C@H]1O[C@H](CCC(C)C)[C@@H](C)[C@H]2CC[C@H]3[C@@H]4CCC5=CC(=O)C=C[C@]5(C)[C@H]4CC[C@]123`, for which the IC50 (as a rule, the concentration needed to halve the response being measured) in the series on HeLa is 19.6 µg/mL (≈ 43.1 µM). In series [1], this compound gave an LC50 greater than 25 µg/mL. Moreover, in series [2], the EC50 is greater than 25 µg/mL.
